Tests used:
Assay in all cases: KinaseProfiler off-target kinase profiling
Format in all cases: biochemical
Conditions in all cases: 10 μM, ATP near Km
[1] = molecular target: T1, AKT3 (Homo sapiens, UniProt Q9Y243)
T1 construct: purchased Millipore (KinaseProfiler service)
Experimental: (§1) A representative compound of the invention (Example 2) was tested for off-target kinase activity at a concentration of 10 μM by Millipore, Inc. in their KinaseProfiler™ service against all the kinases available in their full kinase panel. The compound was run in duplicate at a concentration of ATP near the Km for each individual kinase according to Millipore's specifications. The results are shown in Table B. Data are reported as percent of control (POC) and are the average of the two replicates.

[2] = molecular target: T2, ALK4 (Homo sapiens, UniProt P36896)
T2 construct: purchased Millipore (KinaseProfiler service)
T2 sequence (P36896 24-505): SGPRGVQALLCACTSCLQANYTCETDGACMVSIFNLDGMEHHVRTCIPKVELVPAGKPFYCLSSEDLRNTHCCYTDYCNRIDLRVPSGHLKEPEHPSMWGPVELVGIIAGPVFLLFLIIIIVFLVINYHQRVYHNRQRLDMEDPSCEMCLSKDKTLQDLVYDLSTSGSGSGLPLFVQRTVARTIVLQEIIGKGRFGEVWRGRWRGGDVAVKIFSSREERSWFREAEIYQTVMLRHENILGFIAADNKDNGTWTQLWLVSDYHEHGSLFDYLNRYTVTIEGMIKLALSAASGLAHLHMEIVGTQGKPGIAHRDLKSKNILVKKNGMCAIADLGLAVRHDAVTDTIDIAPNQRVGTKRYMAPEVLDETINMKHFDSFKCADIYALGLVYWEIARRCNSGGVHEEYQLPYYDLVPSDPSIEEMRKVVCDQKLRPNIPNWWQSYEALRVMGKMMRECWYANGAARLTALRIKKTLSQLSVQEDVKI
Experimental: as §1

[3] = molecular target: T3, Abl-P (Homo sapiens, UniProt P00519)
T3 construct: purchased Millipore (KinaseProfiler service)
Experimental: as §1

[4] = molecular target: T4, BrSK1 (Homo sapiens, UniProt Q8TDC3)
T4 construct: purchased Millipore (KinaseProfiler service)
Experimental: as §1

[5] = molecular target: T5, CAMK2b (Homo sapiens, UniProt Q13554)
T5 construct: purchased Millipore (KinaseProfiler service)
Experimental: as §1

[6] = molecular target: T6, CAMK2d (Homo sapiens, UniProt Q13557)
T6 construct: purchased Millipore (KinaseProfiler service)
Experimental: as §1

[7] = molecular target: T7, CDK1/cyclinB (Homo sapiens, UniProt P06493)
T7 construct: purchased Millipore (KinaseProfiler service)
Experimental: as §1

[8] = molecular target: T8, CDK7/cyclinH/MAT1 (Homo sapiens, UniProt P50613)
T8 construct: purchased Millipore, Inc. (KinaseProfiler service)
Experimental: as §1

[9] = molecular target: T9, CK1gamma3 (Homo sapiens, UniProt Q9Y6M4)
T9 construct: purchased Millipore, Inc. (KinaseProfiler service)
Experimental: as §1

[10] = molecular target: T10, DYRK2 (Homo sapiens, UniProt Q92630)
T10 construct: purchased Millipore, Inc. (KinaseProfiler service)
Experimental: as §1

[11] = molecular target: T11, ERK1 (Homo sapiens, UniProt P27361)
T11 construct: purchased Millipore, Inc. (KinaseProfiler service)
T11 sequence (P27361 whole entry): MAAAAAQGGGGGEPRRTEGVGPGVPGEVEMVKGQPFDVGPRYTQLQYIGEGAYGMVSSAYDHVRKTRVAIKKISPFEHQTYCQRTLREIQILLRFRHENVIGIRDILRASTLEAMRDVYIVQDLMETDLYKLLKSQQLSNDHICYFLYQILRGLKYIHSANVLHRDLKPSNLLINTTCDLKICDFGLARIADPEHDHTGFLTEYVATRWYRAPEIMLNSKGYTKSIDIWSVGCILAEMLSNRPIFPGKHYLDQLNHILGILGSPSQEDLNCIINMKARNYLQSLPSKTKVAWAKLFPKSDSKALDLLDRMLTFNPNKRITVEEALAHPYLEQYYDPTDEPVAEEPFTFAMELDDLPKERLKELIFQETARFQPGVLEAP
Experimental: as §1

[12] = molecular target: T12, ERK2 (Homo sapiens, UniProt P28482)
T12 construct: purchased Millipore, Inc. (KinaseProfiler service)
Experimental: as §1

[13] = molecular target: T13, EphB4 (Homo sapiens, UniProt P54760)
T13 construct: purchased Millipore, Inc. (KinaseProfiler service)
Experimental: as §1

[14] = molecular target: T14, Fyn (Homo sapiens, UniProt P06241)
T14 construct: purchased Millipore, Inc. (KinaseProfiler service)
Experimental: as §1

[15] = molecular target: T15, GSK3alpha (Homo sapiens, UniProt P49840)
T15 construct: purchased Millipore, Inc. (KinaseProfiler service)
Experimental: as §1

[16] = molecular target: T16, HIPK2 (Homo sapiens, UniProt Q9H2X6)
T16 construct: purchased Millipore, Inc. (KinaseProfiler service)
Experimental: as §1

[17] = molecular target: T17, IKKalpha (Homo sapiens, UniProt O15111)
T17 construct: purchased Millipore, Inc. (KinaseProfiler service)
Experimental: as §1

[18] = molecular target: T18, JNK1alpha1 (Homo sapiens, UniProt P45983)
T18 construct: purchased Millipore, Inc. (KinaseProfiler service)
T18 sequence (P45983 1-384 isoform P45983-2): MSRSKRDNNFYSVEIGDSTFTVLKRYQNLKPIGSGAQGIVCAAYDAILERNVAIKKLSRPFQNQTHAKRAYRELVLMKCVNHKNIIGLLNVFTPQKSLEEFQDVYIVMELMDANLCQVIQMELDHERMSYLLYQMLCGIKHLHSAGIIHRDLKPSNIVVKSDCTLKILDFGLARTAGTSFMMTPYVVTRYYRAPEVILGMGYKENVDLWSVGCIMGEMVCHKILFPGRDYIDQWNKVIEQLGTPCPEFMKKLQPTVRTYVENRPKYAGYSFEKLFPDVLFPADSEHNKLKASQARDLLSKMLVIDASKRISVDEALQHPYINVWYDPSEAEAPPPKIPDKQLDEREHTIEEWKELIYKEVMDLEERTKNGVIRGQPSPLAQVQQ
Experimental: as §1

[19] = molecular target: T19, LOK (Homo sapiens, UniProt O94804)
T19 construct: purchased Millipore, Inc. (KinaseProfiler service)
T19 sequence (O94804 whole entry): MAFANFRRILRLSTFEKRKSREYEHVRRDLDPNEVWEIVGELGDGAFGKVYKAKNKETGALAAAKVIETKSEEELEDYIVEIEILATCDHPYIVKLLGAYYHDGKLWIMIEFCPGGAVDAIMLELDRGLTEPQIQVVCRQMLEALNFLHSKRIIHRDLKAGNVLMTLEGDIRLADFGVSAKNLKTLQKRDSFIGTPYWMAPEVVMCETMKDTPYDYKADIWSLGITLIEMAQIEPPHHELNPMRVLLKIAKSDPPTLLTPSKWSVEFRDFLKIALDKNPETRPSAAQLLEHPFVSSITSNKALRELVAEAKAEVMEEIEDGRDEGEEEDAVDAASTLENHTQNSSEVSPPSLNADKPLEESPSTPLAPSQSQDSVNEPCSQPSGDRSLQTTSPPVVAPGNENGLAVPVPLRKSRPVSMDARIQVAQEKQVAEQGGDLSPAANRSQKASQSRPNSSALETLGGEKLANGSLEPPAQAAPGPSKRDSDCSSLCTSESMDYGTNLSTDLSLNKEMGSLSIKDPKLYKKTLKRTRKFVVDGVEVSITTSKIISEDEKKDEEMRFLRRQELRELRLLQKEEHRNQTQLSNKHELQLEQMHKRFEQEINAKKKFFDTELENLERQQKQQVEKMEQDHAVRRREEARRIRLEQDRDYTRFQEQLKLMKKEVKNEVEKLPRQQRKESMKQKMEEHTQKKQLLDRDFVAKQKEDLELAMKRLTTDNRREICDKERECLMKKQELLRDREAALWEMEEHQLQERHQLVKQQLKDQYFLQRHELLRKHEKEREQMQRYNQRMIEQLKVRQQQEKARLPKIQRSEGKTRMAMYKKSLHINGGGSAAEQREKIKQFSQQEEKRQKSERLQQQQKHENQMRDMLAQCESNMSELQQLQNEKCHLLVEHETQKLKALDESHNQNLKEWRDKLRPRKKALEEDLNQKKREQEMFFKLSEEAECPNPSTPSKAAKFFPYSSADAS
Experimental: as §1

[20] = molecular target: T20, MAP4K2 (Homo sapiens, UniProt Q12851)
T20 construct: purchased Millipore, Inc. (KinaseProfiler service)
Experimental: as §1

[21] = molecular target: T21, MAPKAP-K3 (Homo sapiens, UniProt Q16644)
T21 construct: purchased Millipore, Inc. (KinaseProfiler service)
T21 sequence (Q16644 whole entry): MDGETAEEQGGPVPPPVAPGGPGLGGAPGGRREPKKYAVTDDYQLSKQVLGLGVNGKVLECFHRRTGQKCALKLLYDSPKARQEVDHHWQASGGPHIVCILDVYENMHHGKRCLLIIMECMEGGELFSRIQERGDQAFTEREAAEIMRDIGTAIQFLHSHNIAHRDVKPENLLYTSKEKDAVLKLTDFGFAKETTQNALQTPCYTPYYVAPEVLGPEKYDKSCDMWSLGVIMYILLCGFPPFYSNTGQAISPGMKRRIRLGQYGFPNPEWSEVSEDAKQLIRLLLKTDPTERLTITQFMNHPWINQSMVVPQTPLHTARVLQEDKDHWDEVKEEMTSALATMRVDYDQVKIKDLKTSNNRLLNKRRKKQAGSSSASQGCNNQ
Experimental: as §1

[22] = molecular target: T22, MAPKAP-K5 (Homo sapiens, UniProt Q8IW41)
T22 construct: purchased Millipore, Inc. (KinaseProfiler service)
Experimental: as §1

[23] = molecular target: T23, MKK6 (Homo sapiens, UniProt P52564)
T23 construct: purchased Millipore, Inc. (KinaseProfiler service)
Experimental: as §1

[24] = molecular target: T24, MKK7beta (Homo sapiens, UniProt O14733)
T24 construct: purchased Millipore, Inc. (KinaseProfiler service)
T24 sequence (O14733 whole entry): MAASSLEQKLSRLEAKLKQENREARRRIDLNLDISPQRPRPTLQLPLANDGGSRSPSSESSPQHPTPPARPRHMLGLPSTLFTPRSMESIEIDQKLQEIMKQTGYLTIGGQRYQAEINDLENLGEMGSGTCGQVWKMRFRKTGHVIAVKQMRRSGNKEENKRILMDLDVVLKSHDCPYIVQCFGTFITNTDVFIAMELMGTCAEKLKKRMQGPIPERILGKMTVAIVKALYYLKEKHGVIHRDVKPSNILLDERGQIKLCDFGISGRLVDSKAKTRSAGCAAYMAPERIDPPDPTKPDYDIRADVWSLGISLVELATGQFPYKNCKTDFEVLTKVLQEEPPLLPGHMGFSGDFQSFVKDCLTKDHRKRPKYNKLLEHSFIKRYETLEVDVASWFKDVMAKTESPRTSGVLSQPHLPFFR
Experimental: as §1

[25] = molecular target: T25, MKNK2 (Homo sapiens, UniProt Q9HBH9)
T25 construct: purchased Millipore, Inc. (KinaseProfiler service)
T25 sequence (Q9HBH9 whole entry): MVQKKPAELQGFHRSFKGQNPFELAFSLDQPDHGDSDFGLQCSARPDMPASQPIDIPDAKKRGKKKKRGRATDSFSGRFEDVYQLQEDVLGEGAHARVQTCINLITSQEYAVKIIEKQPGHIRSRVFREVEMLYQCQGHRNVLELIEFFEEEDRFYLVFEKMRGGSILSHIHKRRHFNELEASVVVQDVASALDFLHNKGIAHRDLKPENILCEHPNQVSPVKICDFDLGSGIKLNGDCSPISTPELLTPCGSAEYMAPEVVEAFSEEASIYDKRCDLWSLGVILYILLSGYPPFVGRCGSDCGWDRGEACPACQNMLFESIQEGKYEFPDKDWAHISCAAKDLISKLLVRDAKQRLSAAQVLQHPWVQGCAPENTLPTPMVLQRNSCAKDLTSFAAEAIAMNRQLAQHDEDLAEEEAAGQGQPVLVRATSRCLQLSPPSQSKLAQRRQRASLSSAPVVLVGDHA
Experimental: as §1

[26] = molecular target: T26, MYLK (Homo sapiens, UniProt Q15746)
T26 construct: purchased Millipore, Inc. (KinaseProfiler service)
Experimental: as §1

[27] = molecular target: T27, NEK3 (Homo sapiens, UniProt P51956)
T27 construct: purchased Millipore, Inc. (KinaseProfiler service)
Experimental: as §1

[28] = molecular target: T28, NEK6 (Homo sapiens, UniProt Q9HC98)
T28 construct: purchased Millipore, Inc. (KinaseProfiler service)
Experimental: as §1

[29] = molecular target: T29, PAK2 (Homo sapiens, UniProt Q13177)
T29 construct: purchased Millipore, Inc. (KinaseProfiler service)
Experimental: as §1

[30] = molecular target: T30, PAK5 (Homo sapiens, UniProt Q9P286)
T30 construct: purchased Millipore, Inc. (KinaseProfiler service)
Experimental: as §1

[31] = molecular target: T31, PASK (Homo sapiens, UniProt Q96RG2)
T31 construct: purchased Millipore, Inc. (KinaseProfiler service)
Experimental: as §1

[32] = molecular target: T32, PKAC-alpha (Homo sapiens, UniProt P17612)
T32 construct: purchased Millipore, Inc. (KinaseProfiler service)
Experimental: as §1

[33] = molecular target: T33, Pim-2 (Homo sapiens, UniProt Q9P1W9)
T33 construct: purchased Millipore, Inc. (KinaseProfiler service)
Experimental: as §1

[34] = molecular target: T34, Pim-3 (Homo sapiens, UniProt Q86V86)
T34 construct: purchased Millipore, Inc. (KinaseProfiler service)
Experimental: as §1

[35] = molecular target: T35, ROCK-I (Homo sapiens, UniProt Q13464)
T35 construct: purchased Millipore, Inc. (KinaseProfiler service)
Experimental: as §1

[36] = molecular target: T36, SGK3 (Homo sapiens, UniProt Q96BR1)
T36 construct: purchased Millipore, Inc. (KinaseProfiler service)
T36 sequence (Q96BR1 whole entry): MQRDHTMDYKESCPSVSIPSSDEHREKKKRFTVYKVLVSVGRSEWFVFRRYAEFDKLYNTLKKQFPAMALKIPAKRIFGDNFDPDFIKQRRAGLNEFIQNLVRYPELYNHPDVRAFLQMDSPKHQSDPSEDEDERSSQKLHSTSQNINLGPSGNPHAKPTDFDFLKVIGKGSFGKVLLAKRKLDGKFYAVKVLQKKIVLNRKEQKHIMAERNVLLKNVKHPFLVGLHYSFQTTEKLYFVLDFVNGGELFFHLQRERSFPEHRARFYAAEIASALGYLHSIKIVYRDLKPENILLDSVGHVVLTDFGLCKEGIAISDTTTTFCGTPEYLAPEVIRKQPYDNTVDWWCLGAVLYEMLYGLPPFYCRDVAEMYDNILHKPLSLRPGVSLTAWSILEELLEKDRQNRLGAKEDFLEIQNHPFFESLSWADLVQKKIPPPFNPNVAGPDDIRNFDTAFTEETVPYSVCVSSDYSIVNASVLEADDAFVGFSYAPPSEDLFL
Experimental: as §1

[37] = molecular target: T37, SRPK1 (Homo sapiens, UniProt Q96SB4)
T37 construct: purchased Millipore, Inc. (KinaseProfiler service)
T37 sequence (Q96SB4 whole entry): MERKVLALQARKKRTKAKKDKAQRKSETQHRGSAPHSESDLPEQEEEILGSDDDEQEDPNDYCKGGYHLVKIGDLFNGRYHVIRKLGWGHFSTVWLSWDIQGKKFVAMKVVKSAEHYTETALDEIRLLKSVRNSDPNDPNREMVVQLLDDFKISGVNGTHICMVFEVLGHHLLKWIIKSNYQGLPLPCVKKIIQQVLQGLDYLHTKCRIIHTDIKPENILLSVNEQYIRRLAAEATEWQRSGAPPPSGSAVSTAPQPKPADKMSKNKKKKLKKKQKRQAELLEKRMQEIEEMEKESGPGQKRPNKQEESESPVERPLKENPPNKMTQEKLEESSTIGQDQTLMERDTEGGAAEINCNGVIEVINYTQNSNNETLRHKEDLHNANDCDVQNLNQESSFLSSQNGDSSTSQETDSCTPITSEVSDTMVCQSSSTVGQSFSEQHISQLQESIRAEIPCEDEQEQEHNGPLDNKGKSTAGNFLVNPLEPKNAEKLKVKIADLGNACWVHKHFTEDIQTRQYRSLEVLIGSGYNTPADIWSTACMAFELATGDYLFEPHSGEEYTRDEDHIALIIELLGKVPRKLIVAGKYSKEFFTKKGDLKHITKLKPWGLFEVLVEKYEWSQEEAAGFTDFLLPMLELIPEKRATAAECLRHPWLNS
Experimental: as §1

[38] = molecular target: T38, TAO2 (Homo sapiens, UniProt Q9UL54)
T38 construct: purchased Millipore, Inc. (KinaseProfiler service)
Experimental: as §1

[39] = molecular target: T39, Txk (Homo sapiens, UniProt P42681)
T39 construct: purchased Millipore, Inc. (KinaseProfiler service)
Experimental: as §1

[40] = molecular target: T40, mTOR (Homo sapiens, UniProt P42345)
T40 construct: purchased Millipore, Inc. (KinaseProfiler service)
Experimental: as §1

[41] = molecular target: T41, mTOR/FKBP12 (Homo sapiens, UniProt P42345)
T41 construct: purchased Millipore, Inc. (KinaseProfiler service)
Experimental: as §1

Avg POC [1]: 116 POC
Avg POC [2]: 107 POC
Avg POC [3]: 148 POC
Avg POC [4]: 132.5 POC
Avg POC [5]: 102 POC
Avg POC [6]: 118 POC
Avg POC [7]: 106 POC
Avg POC [8]: 113 POC
Avg POC [9]: 114 POC
Avg POC [10]: 88 POC
Avg POC [11]: 96.5 POC
Avg POC [12]: 135 POC
Avg POC [13]: 130 POC
Avg POC [14]: 105.5 POC
Avg POC [15]: 147.5 POC
Avg POC [16]: 98.5 POC
Avg POC [17]: 133 POC
Avg POC [18]: 113 POC
Avg POC [19]: 110.5 POC
Avg POC [20]: 121.5 POC
Avg POC [21]: 116 POC
Avg POC [22]: 95.5 POC
Avg POC [23]: 134 POC
Avg POC [24]: 143.5 POC
Avg POC [25]: 95 POC
Avg POC [26]: 99 POC
Avg POC [27]: 108.5 POC
Avg POC [28]: 117.5 POC
Avg POC [29]: 98.5 POC
Avg POC [30]: 131.5 POC
Avg POC [31]: 113 POC
Avg POC [32]: 134 POC
Avg POC [33]: 142.5 POC
Avg POC [34]: 107.5 POC
Avg POC [35]: 113 POC
Avg POC [36]: 151 POC
Avg POC [37]: 114 POC
Avg POC [38]: 123.5 POC
Avg POC [39]: 163 POC
Avg POC [40]: 92.5 POC
Avg POC [41]: 103 POC
SMILES: Cc1c(-c2cnn(C)c2)nn(-c2ccccc2)c1NC(=O)Nc1sc(C(F)(F)F)nc1-c1ccccc1 [Example 2, 1-(1′,4-dimethyl-1-phenyl-1H,1′H-[3,4′-bipyrazol]-5-yl)-3-(4-phenyl-2-(trifluoromethyl)thiazol-5-yl)urea]

Source: patent US9981959B2, “Thiazolyl and oxazolyl urea, thiourea, guanidine and cyanoguanidine compounds as TrkA kinase inhibitors” (Array BioPharma Inc., priority 2012, dated 2018)
